“Also recorded” adds a separate entry of the source. Non-standard residues stand in square brackets, D forms with d. Residues, ends and D or L forms follow the SMILES beside them.

The values below come from US7094869B2, “Low molecular weight peptidomimetic growth hormone secretagogues” (Genentech, Inc., priority 1994, dated 2006).

Data set [1] addresses T1, rat pituitary cells (Rattus norvegicus, UniProt O08725). Particulars: read-out: mean EC50; mean ± SE of independent EC50s. The procedure, abridged: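 Primary rat anterior pituitary cells, cultured three days in DME low glucose/10% FBS, were washed, pre-incubated twice for 15 min, then challenged 15 min with test compounds (DMSO ≤0.1%) at 37 °C. Released GH was measured by two-site ELISA; EC50 came from 4-parameter fits, mean of three to four independent determinations.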

In another data set the test system is growth hormone secretion. Put plainly: GHRP induced growth hormone secretion, intravenous administration (Rat IV). It is filed as in vivo. Particulars: Table II; iv tail vein injection, anesthetized weanling female rats, serum GH 10 min after injection. The procedure, abridged:
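Female Sprague Dawley rats (24-30 days, 50-90 g) under intraperitoneal pentobarbitone received graded intravenous tail-vein peptide doses in pH 5.0 sodium acetate/mannitol buffer 20 min post-anaesthesia. Blood by cardiac puncture 10 min after dosing; serum GH measured by rat GH ELISA in duplicate.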

Data set [2] deals with T1, rat pituitary cells. Nature of the data set: Rat “pit” cell challenges: combinations with GHRP-6/GHRH, desensitization, somatostatin suppression, GHRP antagonist. The format is cell-based.
Experimental: Dispersion: Adult female Sprague-Dawley (160-180 g., Charles River) rats were group-caged in a 12:12 light:dark cycle with food and water available ad libitum. Pituitaries from ten rats were removed, the posterior pituitary discarded and the anterior pituitary placed in Hanks' Balanced Salt Solution (HBSS: without calcium chloride, w/o magnesium chloride, w/o magnesium sulfate; Gibco) containing 20 mM HEPES (Gibco) and 100 U/ml penicillin streptomycin (PS: JRH Biosciences). Under sterile conditions, pituitaries were rinsed twice then minced into small fragments with a razor blade. Fragments were resuspended in 5 ml of HBSS/HEPES containing 20 mg collagenase (Serva 17449) and 200 ml of 1 mg/ml DNase (Sigma) for a 40 min. incubation in a 37° C. gyrotory water bath shaker (New Brunswick Scientific Model G76; setting 10). After the incubation, fragments were triturated to yield small clumps and single cells. The cells were centrifuged 1000× g for 5 min, resuspended, counted and plated at a final cell concentration of 100,000 cells/ml. Incubation media was DME low glucose media w/NaHCO3 (Gibco) containing 20 mM hepes, 100 U/ml PS and 10% FBS (Hyclone A-111-L). Cells were plated at 0.5 ml per well in 48 well plates (Falcon) and incubated at 37° C. in 5% C02 for three days. […] The highest concentration of DMSO in media was 0.1%. Stock solutions (1 mM) of rat GHRH, somatostatin (Sigma) and GHRP antagonist HwkWfK were made fresh in media and diluted appropriately. The media used in all challenges and washing steps was DME low glucose with 20 mM Hepes, 100 U/ml PS, 10% FBS. Media was warmed to 37° C. and gassed by placing it into the incubator prior to challenge. On day three, the media was discarded and fresh media (approximately 1 ml) added for the first of three washes. After the last wash, the plate was placed back in the incubator for a 15 min pre-incubation. Then cells were washed 2× (with warmed and gassed media) and fresh 0.5 ml media were added for the second 15 min. pre-incubation. After the second pre-incubation cells were washed 2× as above and 0.5 ml of control and test solutions were added for a final 15 min incubation. After this incubation, the media were removed for subsequent GH ELISA. GH ELISA: A two-site ELISA was used to determine rat GH concentration in the media. Briefly, goat anti-rat GH antibody (lot#19164-20) was used to coat Nunc immunoplates overnight. After blocking and washing, standard (rat GH reference preparation: Parlow) and challenge media is diluted 1:20 prior to GH assay were added for a 1 hr room temperature incubation. STATISTICS: The mean for each group was determined and analyzed by one-way analysis of variance with a post-hoc Student-Newman-Keuls. Significance is defined as P<0.05. The EC50 was calculated using a 4-parameter curve-fit program (Kaleidagraph). Three to four independent EC50s were used to derive the mean and SEM.
Data set [3] in a line: Combination GHRP and IGF-1 treatment of normal rats (7 days). The format is in vivo, rat. Particulars: 7 days, twice daily sc injections, normal adult female rats; GHRH 300, GHRPs 50, L-692,585 150 μg/dose. The method, then: The rats were weighed on the day of surgery and randomized into 12 groups of 5/group using a grouping program.
The GH secretagogues were given by sc. injection twice daily, each dose of 100 μl. […] Recombinant human IGF-1 (rhIGF-1) at 2.5 mg/ml in acetate buffer was loaded into osmotic minipumps (Alza, Palo Alto, model 2ML1, pump rate 10.16 μl/hr for 7 days, fill volume 2086 μl). Other pumps were filled with acetate buffer. […] The delivered dose of rhIGF-1 was therefore 610 μg/day.
The next day the osmotic pumps were inserted into rats. […] All rats not receiving rhIGF-1 containing pumps were implanted with pumps delivering the acetate buffer excipient. […] The treatment groups were;
The rats were sacrificed using carbon dioxide, bled from the heart and organs taken. Serum chemistries were measured by standard automated procedures.

The conditions of data set [4]: oral; cited from earlier work.

T1 sequence (O08725 whole entry): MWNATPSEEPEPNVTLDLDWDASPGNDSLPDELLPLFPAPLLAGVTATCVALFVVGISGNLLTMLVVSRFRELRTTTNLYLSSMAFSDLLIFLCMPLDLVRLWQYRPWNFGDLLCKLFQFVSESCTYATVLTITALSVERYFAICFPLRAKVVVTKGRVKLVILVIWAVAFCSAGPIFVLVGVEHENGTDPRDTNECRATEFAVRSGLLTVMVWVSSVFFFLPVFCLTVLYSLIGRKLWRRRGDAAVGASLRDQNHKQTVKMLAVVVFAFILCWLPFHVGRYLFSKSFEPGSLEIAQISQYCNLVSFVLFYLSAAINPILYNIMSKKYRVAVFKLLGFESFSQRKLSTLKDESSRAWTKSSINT

A word on the EC50: it is the concentration that produces a half-maximal response. Consider `C[C@H](NC(=O)[C@@H](Cc1c[nH]c2ccccc12)NC(=O)[C@@H](N)Cc1c[nH]cn1)C(=O)N[C@@H](Cc1c[nH]c2ccccc12)C(=O)N[C@H](Cc1ccccc1)C(=O)N[C@@H](CCCCN)C(N)=O` [GHRP 6, His-D Trp-Ala-Trp-D Phe-Lys-NH2, reference compound] (H-H[dW]AW[dF]K-NH2), for which the EC50 on rat pituitary cells [1] was 6.2 ± 1.5 nM. Moreover, the “Rat IV ED50” value in the data set with growth hormone secretion was determined as 1.0 µg. On rat pituitary cells [2] (100 nM), the “GH response compared with control” value is reported as “significantly greater than control” and the “increase in GH levels over control” value turned out to be 3 fold. Besides, at rat pituitary cells [2] (GHRP 100 nM plus GHRH 10 or 100 nM), the “GH release in combination with GHRH” value was “show synergy with 10 nM GHRH; also recorded: synergistic; also recorded: showed synergy with GHRH”. The “body weight gain (in words)” value in data set [3] is given as “significant body weight gain”. Moreover, in data set [4], the absorbed orally is about 0.3%.
